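In this assay, cells in 96-well plates receive the compound at five concentrations for 48 hours. Endpoints are linearly interpolated between the surrounding concentrations. Abbreviation: GI50, concentration required for 50% inhibition of growth. At the TGI there is no net growth.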

Some test systems named below: U251 CNS; T-47D breast; IGROV1 ovarian; SW-620 colon; HS 578T breast; TK-10 renal; LOX IMVI melanoma; A549 NSCLC; NCI-H23 lung; OVCAR-5 ovarian.
What all share (assay): DTP human tumour cell line panel, 48 h

A word on the GI50: it is the concentration that inhibits growth by half. In general, TGI refers to the concentration at which net growth stops. Low readings indicate greater sensitivity of the cells, high ones lower sensitivity of the cells. In the case of `C=C1CCC2(C#N)[C@H]3[C@H](CC[C@@H]2C)[C@@H](C)C[C@@H](CC(C)(C)NC(=O)CN2CCC2=O)[C@H]13` (some centres not stated), the GI50 with U251 CNS is 4.27 µM; in the assay with T-47D breast, 2.49 µM; with IGROV1 ovarian, 6.03 µM; in the assay with SW-620 colon it was 11.3 µM; in the assay with HS 578T breast, 4.79 µM; with TK-10 renal, 16.2 µM. Further, the GI50 was 6.17 µM with LOX IMVI melanoma, 13.3 µM in the assay with A549 NSCLC, 10.4 µM in the assay on NCI-H23 lung and 10.7 µM in the assay on OVCAR-5 ovarian. The TGI is 16.6 µM with U251 CNS; 9.64 µM with T-47D breast; 23 µM in the assay on IGROV1 ovarian; 32.3 µM in the assay on SW-620 colon; 30.7 µM with HS 578T breast; 43.3 µM with TK-10 renal. In addition, the TGI in the assay with LOX IMVI melanoma was 19.7 µM; in the assay with A549 NSCLC, 50.4 µM; in the assay with NCI-H23 lung, 36.7 µM; with OVCAR-5 ovarian, 22.5 µM.

Turning to `CCN(c1cc(-c2ccc(CN3CCOCC3)cc2)cc(C(=O)NCc2c(C)cc(C)[nH]c2=O)c1C)C1CCOCC1`, the GI50 is 26 µM in the assay with U251 CNS; 18.9 µM in the assay on T-47D breast; 30.3 µM in the assay on IGROV1 ovarian; 20.7 µM in the assay on SW-620 colon; 22.2 µM in the assay with HS 578T breast; 25.2 µM with TK-10 renal. Moreover, the GI50 in the assay on LOX IMVI melanoma is 15.9 µM; with A549 NSCLC, 33.5 µM; in the assay on NCI-H23 lung, 59.4 µM; in the assay on OVCAR-5 ovarian, 37.7 µM. Moreover, the TGI was greater than 81 µM in the assay with U251 CNS; 53.4 µM in the assay with T-47D breast; greater than 63 µM in the assay on IGROV1 ovarian; 52.4 µM in the assay with SW-620 colon; greater than 71.2 µM in the assay on HS 578T breast; greater than 73.6 µM with TK-10 renal. For the same compound, the TGI was 30.3 µM in the assay with LOX IMVI melanoma, greater than 100 µM in the assay on A549 NSCLC, greater than 100 µM in the assay with NCI-H23 lung and greater than 82.5 µM in the assay with OVCAR-5 ovarian.

For `COc1cc2c(cc1O)CC1c3c(cc(O)c(OC)c3-2)CCN1C` (configuration not stated), the TGI with U251 CNS, in the assay on T-47D breast, in the assay with IGROV1 ovarian, in the assay on SW-620 colon, with HS 578T breast and in the assay with TK-10 renal was greater than 100 µM each time. The TGI in the assay on LOX IMVI melanoma, in the assay on A549 NSCLC, with NCI-H23 lung and in the assay with OVCAR-5 ovarian was greater than 100 µM each time.

For the compound `O=c1cc(N/N=C/c2ccc(F)cc2)c2cc(Cl)ccc2[nH]1`, the GI50 is 21.1 µM with U251 CNS; 18.6 µM with T-47D breast; 18.5 µM in the assay on IGROV1 ovarian; 26.8 µM in the assay on SW-620 colon; 25.3 µM with HS 578T breast; 47.1 µM with TK-10 renal. The GI50 is 25.3 µM in the assay with LOX IMVI melanoma, 23.5 µM in the assay on A549 NSCLC, 19.5 µM in the assay with NCI-H23 lung and 21.6 µM with OVCAR-5 ovarian. The TGI in the assay with U251 CNS is 98.4 µM; in the assay on T-47D breast, greater than 100 µM; in the assay with IGROV1 ovarian, greater than 100 µM; with SW-620 colon, greater than 100 µM; in the assay on HS 578T breast it was greater than 100 µM; in the assay with TK-10 renal, greater than 100 µM. Moreover, the TGI in the assay with LOX IMVI melanoma is greater than 100 µM; with A549 NSCLC, greater than 100 µM; with NCI-H23 lung, 76.1 µM; with OVCAR-5 ovarian, 58.9 µM.

As to `Cc1nc(Nc2cccnc2)sc1C(=O)/C=C/c1ccc(Cl)cc1`, the GI50 in the assay on U251 CNS is 1.81 µM; in the assay with T-47D breast it was 2.57 µM; in the assay with IGROV1 ovarian it was 3.29 µM; in the assay with SW-620 colon, 2.08 µM; in the assay on HS 578T breast, 4.11 µM; with TK-10 renal it was 3.53 µM. The GI50 is 1.83 µM in the assay on LOX IMVI melanoma, 3.32 µM with A549 NSCLC, 3.43 µM with NCI-H23 lung and 2.87 µM in the assay with OVCAR-5 ovarian. Further, the TGI is 3.72 µM in the assay on U251 CNS; 29.4 µM with T-47D breast; greater than 100 µM in the assay on IGROV1 ovarian; 4.75 µM with SW-620 colon; greater than 100 µM in the assay with HS 578T breast; 12.1 µM in the assay with TK-10 renal. For the same compound, the TGI in the assay on LOX IMVI melanoma was 3.75 µM; in the assay on A549 NSCLC, greater than 100 µM; in the assay with NCI-H23 lung, 40.8 µM; in the assay on OVCAR-5 ovarian, 31.2 µM.

As for `C#Cc1nc2ccccc2c(=O)[nH]1`, the GI50 is 1.66 µM in the assay with U251 CNS; 1.36 µM in the assay on T-47D breast; 0.585 µM in the assay on IGROV1 ovarian; 0.291 µM with SW-620 colon; 1.69 µM in the assay with HS 578T breast; 0.546 µM in the assay on TK-10 renal. Besides, the concentration for 50% growth inhibition (GI50) was 0.168 µM in the assay on LOX IMVI melanoma, 2.96 µM with A549 NSCLC, 1.69 µM in the assay with NCI-H23 lung and 1.04 µM with OVCAR-5 ovarian. Further, the concentration for total growth inhibition (TGI) in the assay with U251 CNS came out at 4.28 µM; in the assay with T-47D breast, 3.6 µM; in the assay with IGROV1 ovarian it was 1.7 µM; in the assay with SW-620 colon, 1.12 µM; in the assay on HS 578T breast, 7.12 µM; in the assay on TK-10 renal, 11.2 µM. In addition, the TGI with LOX IMVI melanoma is 0.315 µM; in the assay with A549 NSCLC, 12.9 µM; in the assay on NCI-H23 lung, 4.77 µM; with OVCAR-5 ovarian, 2.59 µM.

For `Cc1nc2c(n1C)C(=O)c1ccccc1C2=O`, the GI50 in the assay with U251 CNS is 63.9 µM; with T-47D breast it was 87.4 µM; with IGROV1 ovarian, 31.3 µM; with SW-620 colon it was 52 µM; in the assay on HS 578T breast, greater than 100 µM; in the assay with TK-10 renal, greater than 100 µM. The GI50 in the assay with LOX IMVI melanoma is 38.5 µM; in the assay on A549 NSCLC, 21.5 µM; in the assay with NCI-H23 lung, 50.4 µM; with OVCAR-5 ovarian, greater than 100 µM. Also, the TGI with U251 CNS, in the assay with T-47D breast, with IGROV1 ovarian, in the assay on SW-620 colon, in the assay on HS 578T breast and with TK-10 renal was greater than 100 µM in each case. In addition, the TGI in the assay with LOX IMVI melanoma, in the assay with A549 NSCLC, in the assay on NCI-H23 lung and in the assay with OVCAR-5 ovarian was greater than 100 µM throughout.

In the case of `COC(=O)C1C(O)C(C)C(O)C(C)C=C(C)C2=C3C(=C(C)C(=O)c4c(O)c(c(C)c(OC(C)=O)c43)NC(=O)C(C)=C/C=C\C(C)C(O)C(C)C1O)OCO2` (configuration not stated), the TGI in the assay with U251 CNS is greater than 100 µM; in the assay on T-47D breast it was greater than 100 µM; in the assay on IGROV1 ovarian it was greater than 100 µM; with SW-620 colon, 56.4 µM; in the assay on HS 578T breast it was greater than 100 µM; with TK-10 renal it was greater than 100 µM. Moreover, the TGI in the assay with LOX IMVI melanoma is 43 µM; in the assay on A549 NSCLC, greater than 100 µM; with NCI-H23 lung, 63 µM; in the assay on OVCAR-5 ovarian, greater than 100 µM.

For the compound `O=C1CCC(N2C(=O)c3ccccc3C2=O)C(=O)N1` (configuration not stated), the TGI with U251 CNS, in the assay with T-47D breast, with IGROV1 ovarian, in the assay with SW-620 colon, in the assay on HS 578T breast and with TK-10 renal was greater than 100 µM throughout. Moreover, the TGI in the assay on LOX IMVI melanoma, in the assay with A549 NSCLC, in the assay on NCI-H23 lung and in the assay with OVCAR-5 ovarian was greater than 100 µM each time. In addition, the GI50 in the assay with TK-10 renal and in the assay with LOX IMVI melanoma was greater than 100 µM throughout.

For the compound `O=c1[nH]c2nc(NC3CCOCC3)ncc2cc1Oc1ccc(F)cc1F`, the GI50 with U251 CNS, with T-47D breast, in the assay with IGROV1 ovarian, with SW-620 colon, in the assay on HS 578T breast and in the assay on TK-10 renal was greater than 25 µM throughout. For the same compound, the GI50 in the assay on LOX IMVI melanoma, in the assay with A549 NSCLC, in the assay with NCI-H23 lung and in the assay with OVCAR-5 ovarian was greater than 25 µM each time. The TGI in the assay with U251 CNS, with T-47D breast, in the assay on IGROV1 ovarian, in the assay with SW-620 colon, with HS 578T breast and in the assay with TK-10 renal was greater than 25 µM each time. Moreover, the TGI in the assay with LOX IMVI melanoma, in the assay on A549 NSCLC, with NCI-H23 lung and with OVCAR-5 ovarian was greater than 25 µM in each case.

As for `C1CC2CN(CCCN3CCOCC3)C(C1)O2` (configuration not stated), the TGI in the assay on U251 CNS, with T-47D breast, in the assay with IGROV1 ovarian, in the assay with SW-620 colon, with HS 578T breast and with TK-10 renal was greater than 100 µM throughout. The TGI with LOX IMVI melanoma, with A549 NSCLC, in the assay with NCI-H23 lung and in the assay with OVCAR-5 ovarian was greater than 100 µM in each case.

Turning to `O=P1(S)OC[C@H]2O[C@@H]3[C@H](F)[C@@H]2OP(O)(=S)OC[C@H]2O[C@H]([C@H](F)[C@@H]2O1)n1cnc2c(ncnc21)NC/C=C/CNc1ncnc2c1ncn23` (some centres not stated), the GI50 in the assay on U251 CNS, in the assay with T-47D breast, with IGROV1 ovarian, in the assay on SW-620 colon, with HS 578T breast and with TK-10 renal was greater than 100 µM throughout. The GI50 with LOX IMVI melanoma is greater than 100 µM; in the assay with A549 NSCLC it was greater than 100 µM; in the assay with NCI-H23 lung it was greater than 100 µM; in the assay with OVCAR-5 ovarian, greater than 44.1 µM. The TGI with U251 CNS, in the assay with T-47D breast, in the assay on IGROV1 ovarian, in the assay with SW-620 colon, in the assay with HS 578T breast and in the assay with TK-10 renal was greater than 100 µM each time. The TGI in the assay with LOX IMVI melanoma, with A549 NSCLC, in the assay on NCI-H23 lung and in the assay with OVCAR-5 ovarian was greater than 100 µM in each case.

Turning to `NN=C(CC(O)(C(F)(F)Cl)C(F)(F)Cl)CC(O)(C(F)(F)Cl)C(F)(F)Cl`, the TGI with U251 CNS, in the assay with T-47D breast, in the assay on IGROV1 ovarian, with SW-620 colon, in the assay on HS 578T breast and with TK-10 renal was greater than 10 µM in each case. Moreover, the TGI in the assay with LOX IMVI melanoma, with A549 NSCLC, in the assay with NCI-H23 lung and in the assay on OVCAR-5 ovarian was greater than 10 µM each time.

For the origin of these results see PubChem BioAssay (NCI).
